Source: patent US7018836B1, “P-TEFb compositions, methods and screening assays” (priority 1996, dated 2006)

Assays:
[1] = test system: Drosophila TFIIH; test: CTD kinase assay with Drosophila TFIIH; type: biochemical; details: 20 μM DRB
Procedure: 0.4 μl of purified RNA polymerase II and various protein samples were mixed in 18 μl of 55 mM HMK. The reaction was then initiated by the addition of 2 μl of a solution containing 2 μCi of [γ-^32P]ATP (ICN) and unlabeled ATP at 10 μM, or only unlabeled ATP at concentrations from 1 to 100 μM or other NTPs or dNTPs at concentrations of 1 to 100 μM. Reactions were incubated for the indicated times at 23° C. and then terminated with SDS loading buffer. Samples were analyzed on a 6–15% SDS polyacrylamide gel which was silver stained, dried and subjected to autoradiography if the assay contained label.
To determine whether P-TEFb was related to the protein kinase associated with TFIIH (Roy et al., 1994; Feaver et al., 1994; Cismowski et al., 1995; Serizawa et al., 1995; Shiekhattar et al., 1995), P-TEFb was compared with Drosophila TFIIH purified from Drosophila embryos by the method of Austin and Biggin (1996).

[2] = test system: CTD kinase found in the preinitiation complex; test: Phosphorylation of RNA polymerase II in isolated preinitiation complexes (western blot); type: biochemical, Drosophila; details: 20 μM DRB
Procedure: Preinitiation complexes were formed on an immobilized actin template digested with HpaII (780 nt runoff) as described in Marshall and Price (Marshall and Price, 1992). The preinitiation complexes were isolated, washed once with 55 mM HKB (20 mM HEPES, 55 mM KCl and 200 μg/ml BSA) and resuspended into 55 mM HKB. Transcription was initiated by the addition of a pulse solution, which contained 5 μCi of [α-^32P]CTP and brought the reaction mixture to 600 μM in ATP, GTP and UTP and 2 mM MnCl2. MnCl2 increased the rate of initiation of preinitiation complexes, thereby, increasing the number of polymerases in early elongation complexes after a short pulse. After 15 seconds the reaction was stopped by the addition of EDTA to 10 mM.
Preinitiation complexes were formed on an immobilized actin template as described above in Methods, Section 3. […] Incubation of the preinitiation complexes with ATP caused a significant shift of the polymerase to the IIo form. The antibodies used to detect the large subunit of RNA polymerase II reacted more strongly with the […] of the large subunit than either the phosphorylated IIo form or the truncated IIb form. This phosphorylation was unaffected by the presence of 20 μM DRB.

[3] = test system: DRB-sensitive runoff transcription in HeLa nuclear extract (P-TEFb-like activity); test: Pulse-chase transcription in HeLa nuclear extract; type: biochemical, human
Procedure: A pulse-chase protocol was used in which the template DNA was preincubated with the extract, 20 mM HEPES, pH 7.6 and 10 mM MgCl2 for 20 min at 30° C. Nucleotides, including [α-^32P]CTP were added to start the pulse; 2 min later, excess cold CTP was added to initiate the chase. Reactions were stopped after the indicated chase times. During the pulse, 10 μl reaction mixtures contained the following: 20 mM HEPES (pH 7.6), 10 mM MgCl2, 600 μM each GTP, UTP and ATP, 5 μCi of [α-^32P]CTP (˜1 μM CTP), 66 mM KCl, 10–40 μg/ml DNA template, and 3 μl of HeLa nuclear extract. For the chase, unlabeled CTP was added to bring the total concentration of CTP to 1.2 mM and the final reaction volume to 12 μl. Reaction mixtures containing 250 mM KCl, were supplemented with KCl at the beginning of the chase. Drosophila P-TEFb was added to the preincubation mixture where indicated. Reactions were stopped by adding 200 μl of stop solution (1% Sarkosyl, 50 mM Tris, pH 8.0, 50 mM EDTA, 100 mM NaCl and 100 μg/ml tRNA). The reaction mixtures were phenol extracted and the nucleic acids were ethanol precipitated, washed with 70% ethanol, dried and analyzed by gel electrophoresis.
For polyacrylamide gel electrophoresis, samples were resuspended in […] of 0.25×TBE (1×TBE contains 89 mM Tris base, 89 mM Boric acid and 2 mM EDTA) and 8 M urea, heated for 3 min at 85° C. and analyzed in 6% acrylamide-8 M urea-1×TBE gels. Denaturing agarose gel electrophoresis was performed by resuspending samples in 50% formamide-2.2 M formaldehyde-1× morpholinepropanesulfonic acid (MOPS) buffer (20 mM MOPS, pH 7.0; 5 mM sodium acetate, 1 mM EDTA) and heating the mixture at 60° C. for 5 min. Samples were resolved in a 2% agarose gel containing 2.2 M formaldehyde and IX MOPS buffer.

[4] = biological target: T1, TAK (Homo sapiens, UniProt P50750); test: TAK activity assay (GST-Tat pull-down, CTD3 peptide); type: biochemical; details: in a manner similar to P-TEFb
T1 construct: Nuclear extract, cytoplasmic extract, or fractions containing partially purified TAK were incubated with glutathione-Sepharose beads containing GST-Tat fusion proteins; endogenous in cells; host or cells: HeLa cell extract or partially purified HeLa cytoplasmic fraction; GST-Tat made in E. coli DE3 (BL21)
T1 sequence (P50750 whole entry, the tested form may be a part): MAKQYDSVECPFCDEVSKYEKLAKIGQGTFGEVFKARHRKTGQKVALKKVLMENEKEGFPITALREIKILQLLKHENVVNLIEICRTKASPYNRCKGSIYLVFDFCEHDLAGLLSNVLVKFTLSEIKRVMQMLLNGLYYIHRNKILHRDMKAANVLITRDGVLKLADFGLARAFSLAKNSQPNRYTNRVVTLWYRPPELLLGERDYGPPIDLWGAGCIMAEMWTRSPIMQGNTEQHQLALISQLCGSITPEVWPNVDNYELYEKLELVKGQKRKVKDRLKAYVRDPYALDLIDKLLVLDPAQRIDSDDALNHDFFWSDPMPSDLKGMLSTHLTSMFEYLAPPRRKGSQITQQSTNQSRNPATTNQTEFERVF
T1 sequence (O60563 whole entry, further chain, the tested form may be a part): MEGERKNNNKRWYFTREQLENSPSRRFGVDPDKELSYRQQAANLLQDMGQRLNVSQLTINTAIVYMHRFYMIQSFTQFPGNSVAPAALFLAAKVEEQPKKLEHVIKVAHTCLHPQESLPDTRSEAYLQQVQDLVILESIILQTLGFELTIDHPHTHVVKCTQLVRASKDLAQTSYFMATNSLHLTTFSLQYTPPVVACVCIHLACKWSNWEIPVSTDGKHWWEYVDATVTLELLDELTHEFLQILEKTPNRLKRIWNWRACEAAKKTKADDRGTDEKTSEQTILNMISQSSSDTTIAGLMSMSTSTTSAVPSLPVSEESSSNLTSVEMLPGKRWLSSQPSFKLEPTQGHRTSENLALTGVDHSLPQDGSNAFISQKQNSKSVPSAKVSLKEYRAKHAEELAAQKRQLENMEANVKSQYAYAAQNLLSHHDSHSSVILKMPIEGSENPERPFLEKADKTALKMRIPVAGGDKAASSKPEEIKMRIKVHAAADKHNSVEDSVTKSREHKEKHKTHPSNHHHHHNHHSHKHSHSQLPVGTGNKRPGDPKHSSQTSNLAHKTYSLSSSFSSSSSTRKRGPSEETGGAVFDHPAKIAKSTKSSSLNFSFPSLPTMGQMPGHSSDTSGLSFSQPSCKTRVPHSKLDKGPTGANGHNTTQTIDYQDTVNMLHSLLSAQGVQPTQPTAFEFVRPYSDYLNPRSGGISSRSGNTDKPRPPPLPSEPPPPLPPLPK
T1 sequence (P04608 1-48, further chain): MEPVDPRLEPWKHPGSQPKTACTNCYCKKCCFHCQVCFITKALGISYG
Procedure: Preparation of Tat fusion proteins and the TAK pull-down assay were conducted as described by Herrmann and Rice (Herrmann and Rice, 1993; 1995) with modifications as described. Nuclear extract, cytoplasmic extract, or fractions containing partially purified TAK were incubated with glutathione-Sepharose beads containing GST-Tat fusion proteins for 1 hour at 4° C. with gentle rocking. DE3 (BL21) bacteria containing the GST-Tat expression vectors were obtained from NIH AIDS Research and Reference Reagent Program. For maximum sensitivity, GST-Tat48Δ was used unless otherwise specified. The beads (30 μl, 50% slurry) were washed 6 to 8 times with 1 ml EBCD buffer (50 mM Tris, pH 8.0, 120 mM NaCl, 0.5% Nonidet P-40, and 5 mM DTT) containing 0.03% SDS, then 2 to 4 times with Tat kinase buffer (TKB/Mg: 50 mM Tris-HCl, pH 7.6, 5 mM DTT, 5 mM MnCl2, and 4 mM MgCl2), and brought to 50 μl with TKB/Mg buffer and kinase assay mix. The final reaction contained 2 μM ATP, 10 μCi y-^32P-ATP (ICN, 3000 Ci/mmole), and 50–100 μM of CTD trimer peptide CTD3 ([…], SEQ ID NO:68). Reactions were incubated at 25° C. for 40 minutes, stopped by boiling in Laemmli sample buffer, and resolved by electrophoresis in 15% polyacrylamide: bis-acrylamide (30%:0.15%) gels.

| SMILES | sensitivity of CTD kinase activity of TFIIH [1] | phosphorylation of RNA polymerase II to IIo in preinitiation complexes incubated with ATP [2] | DRB concentration at which maximum inhibition occurred [3] | formation of DRB-insensitive processive elongation complexes [3] | fraction of runoff generated that was DRB-sensitive [3] | TAK activity [4] | IC50 ([3]; HeLa NE, 2 min pulse/45 sec chase, read-out: 50% inhibition point of appearance of runoff) |
| --- | --- | --- | --- | --- | --- | --- | --- |
| OC[C@H]1O[C@@H](n2cnc3cc(Cl)c(Cl)cc32)[C@H](O)[C@@H]1O [DRB, 5,6-dichloro-1-β-D-ribofuranosylbenzimidazole] | unaffected | unaffected | 30 µM | did not inhibit | 60% | inhibited | – |
| CNCCNS(=O)(=O)c1cccc2cnccc12 [H-8] | – | – | – | – | – | inhibited | 20 µM |
